Reference: US20250041461A1, “[177LU] LUTETIUM-PSMA I&T COMPOSITION AND DOSIMETRY, KIT, METHOD OF MAKING, AND METHOD OF USING THEREOF” (Curium US LLC, priority 2023, published 2025)
Where “and” joins values, the source holds several entries; their conditions need not be identical. Equal values may be shown once.

Assay: Dosimetry sub-study, first 6 patients, cycle 1 (SPECT/CT, TIAC, OLINDA 2.2.3)
Format: in vivo, human
Details: for projected cumulative absorbed dose to the kidneys after 6 cycles: 7.4 GBq per cycle, number of cycles x absorbed dose at cycle 1
Protocol: Six subjects were administered a target dose of 7.4 GBq (mean 7.52±0.16 GBq) of ^177Lu-PSMA-I&T. Following the infusion, subjects underwent single photon emission computed tomography (SPECT)/computed tomography (CT) imaging at four timepoints (4 h, 24 h, 48 h, 168 h). Image data were analysed to compute time integrated activity coefficients (TIAC) in each organ of interest and/or with appreciable and meaningful ^177Lu-PSMA-I&T activity above background which included kidneys, bladder, liver, lumbar vertebrae L2-L4, lacrimal glands, salivary glands, intestine and whole body. To compute subject-specific organ doses, organ-level TIAC data were entered into Organ Level Internal Dose Assessment, OLINDA 2.2.3 and resulting organ doses for each target organ and whole-body effective dose were collated and averaged.
Patients received SPECT/CT imaging (anatomical coverage included the salivary gland and extended through the pelvis) following the injection of 7.4 (+/−10%) GBq of ^177Lu-PSMA-I&T (detailed injected doses are reported). All patients completed the first treatment cycle and the acquisition of images was carried out without any protocol deviation.
The imaging data was analyzed using Invicro's VivoQuant software, a validated software used in a 21 CFR § 11-compliant workflow. The general quantification approach was based on the principles detailed in MIRD Pamphlet No. 16 (Siegel J, Thomas S, Stubbs J, et al. MIRD pamphlet no. 16: Techniques for quantitative radiopharmaceutical biodistribution data acquisition and analysis for use in human radiation dose estimates. J Nucl Med. 1999; 40:37S-61S and MIRD Primer for Absorbed Dose Calculations, Revised Ed. J Nucl Med. 1991), No 23 (Dewaraja Y K, Frey E C, Sgouros G, et al. MIRD pamphlet No. 23: quantitative SPECT for patient-specific 3-dimensional dosimetry in internal radionuclide therapy. J Nucl Med. 2012; 53(8):1310-1325), and No 26 (Ljungberg M, Celler A, Konijnenberg M W, et al. MIRD Pamphlet No. 26: Joint EANM/MIRD Guidelines for Quantitative ^177Lu SPECT Applied for Dosimetry of Radiopharmaceutical Therapy. J Nucl Med. 2016; 57(1):151-162), as appropriate.
Each SPECT image was co-registered with its corresponding CT. Image calibration was performed to convert the counts measured on the SPECT images to activity (Bq) (Ljungberg et al. MIRD Pamphlet No. 26: Joint EANM/MIRD Guidelines for Quantitative ^177Lu SPECT Applied for Dosimetry of Radiopharmaceutical Therapy. J Nucl Med. 2016; 57(1):151-162). The same SPECT/CT system was used in each patient for the entirety of the dosimetry study.
Regions of interest (kidneys, bladder, liver, lumbar vertebrae L2-L4, lacrimal glands, salivary glands and whole body) were drawn on each dataset by a trained image analyst. Lumbar vertebrae L2-L4 was delineated on the CT images (Hindorf C, Glatting G, Chiesa C, Linden O, Flux G, Committee ED. EANM Dosimetry Committee guidelines for bone marrow and whole-body dosimetry. Eur J Nucl Med Mol Imaging. 2010; 37(6):1238-1250) to derived red marrow doses. For kidneys, an ROI was drawn on the SPECT image to include all the uptake seen in the kidneys. Similarly for lacrimal glands, all the uptake observed on the SPECT image at the lacrimal glands location was segmented.
Time-activity curves of the activity in each ROI as a function of time were plotted. These curves were normalized by the known injected activity to arrive at units of fraction of injected activity. Calculations of time-integrated activity coefficient (TIAC, in units of hours) were performed for each region of interest listed above.
Clearance of the tracer was derived from a data-appropriate fit of each organ TAC. The curve fit was optimized using the Akaike information criterion (AIC) and checked visually by an image scientist. Depending on the shape of the TAC, the data was fitted with the sum of one, two or three exponentials or using a rise and fall model. […]

O=C([O-])CC[C@H](NC(=O)N[C@@H](CCCCNC(=O)CCCCCCC(=O)NCCCC[C@@H](NC(=O)[C@@H](Cc1ccccc1)NC(=O)[C@@H](Cc1ccc(O)c(I)c1)NC(=O)CC[C@H](C(=O)[O-])N1CCN(CC(=O)[O-])CCN(CC(=O)[O-])CCN(CC(=O)[O-])CC1)C(=O)[O-])C(=O)[O-])C(=O)[O-].[177Lu+3].[H+].[H+].[H+].[H+].[H+] [^177Lu-PSMA I&T, (3S,7S,26R,29R,32R,37R)-29-benzyl-32-(4-hydroxy-3-iodobenzyl)-5,13,20,28,31,34-hexaoxo-37-(4,7,10-tris(carboxymethyl)-1,4,7,10-tetraazacyclododecan-1-yl)-4,6,12,21,27,30,33-heptaazaheptatriacontane-1,3,7,26,37-pentacarboxylic acid; lutetium-177 (III)]
Absorbed Dose, Adrenals, Mean (6 patients, cycle 1): 0.02 Gy/GBq | Absorbed Dose, Brain, Mean (6 patients, cycle 1): 0.01 Gy/GBq | Absorbed Dose, Esophagus, Mean (6 patients, cycle 1): 0.01 Gy/GBq | Absorbed Dose, Eyes, Mean (6 patients, cycle 1): 0.01 Gy/GBq | Absorbed Dose, Gallbladder wall, Mean (6 patients, cycle 1): 0.02 Gy/GBq | Absorbed Dose, Heart wall, Mean (6 patients, cycle 1): 0.01 Gy/GBq | Absorbed Dose, Kidneys, Mean (6 patients, cycle 1): 0.46 Gy/GBq | Absorbed Dose, Left colon, Mean (6 patients, cycle 1): 0.39 Gy/GBq | Absorbed Dose, Liver, Mean (6 patients, cycle 1): 0.03 Gy/GBq | Absorbed Dose, Lungs, Mean (6 patients, cycle 1): 0.01 Gy/GBq | Absorbed Dose, Osteogenic cells, Mean (6 patients, cycle 1): 0.02 Gy/GBq | Absorbed Dose, Pancreas, Mean (6 patients, cycle 1): 0.02 Gy/GBq | Absorbed Dose, Prostate, Mean (6 patients, cycle 1): 0.02 Gy/GBq | Absorbed Dose, Rectum, Mean (6 patients, cycle 1): 0.37 Gy/GBq | Absorbed Dose, Red Marrow, Mean (6 patients, cycle 1): 0.02 Gy/GBq | Absorbed Dose, Right colon, Mean (6 patients, cycle 1): 0.21 Gy/GBq | Absorbed Dose, Salivary Glands, Mean (6 patients, cycle 1): 0.10 Gy/GBq | Absorbed Dose, Small intestine, Mean (6 patients, cycle 1): 0.05 Gy/GBq | Absorbed Dose, Spleen, Mean (6 patients, cycle 1): 0.02 Gy/GBq | Absorbed Dose, Stomach Wall, Mean (6 patients, cycle 1): 0.01 Gy/GBq | Absorbed Dose, Testes, Mean (6 patients, cycle 1): 0.01 Gy/GBq | Absorbed Dose, Thymus, Mean (6 patients, cycle 1): 0.01 Gy/GBq | Absorbed Dose, Thyroid, Mean (6 patients, cycle 1): 0.01 Gy/GBq | Absorbed Dose, Total Body, Mean (6 patients, cycle 1): 0.02 Gy/GBq | Absorbed Dose, Urinary Bladder wall, Mean (6 patients, cycle 1): 0.37 Gy/GBq | absorbed dose, kidneys (6 patients, cycle 1): 0.46±0.23 Gy/GBq | absorbed dose, lacrimal glands (6 patients, cycle 1): 0.77±0.25 Gy/GBq | absorbed dose, left colon (6 patients, cycle 1): 0.39±0.32 Gy/GBq | absorbed dose, rectum (6 patients, cycle 1): 0.37±0.31 Gy/GBq | absorbed dose, right colon (6 patients, cycle 1): 0.21±0.17 Gy/GBq | absorbed dose, salivary glands (6 patients, cycle 1): 0.10±0.06 Gy/GBq | absorbed dose, urinary bladder wall (6 patients, cycle 1): 0.37±0.20 Gy/GBq | Whole-body time integrated activity coefficient, mean (6 patients, cycle 1, 7.4 GBq, SD 6.7): 16.6 h | projected cumulative absorbed dose to the kidneys after 6 cycles (6 patients): 20.4±10.2 Gy | projected cumulative absorbed dose to the kidneys after 6 cycles (6 patients, listed as 177Lu-PSMA-I&T): 20.4 Gy | risk of kidney toxicities with 6 treatment cycles (conclusion from dosimetry results): possible without the risk of kidney toxicities | Effective Dose Cycle 1 (individual patients (one per Subject ID)): 9.03E−02 mSv/MBq and 3.11E−02 mSv/MBq and 1.11E−01 mSv/MBq and 6.97E−02 mSv/MBq and 8.11E−02 mSv/MBq and 2.68E−02 mSv/MBq | Kidneys Absorbed Dose (Gy/GBq) (individual patients (one per Subject ID), cycle 1): 0.27 Gy/GBq and 0.22 Gy/GBq and 0.48 Gy/GBq and 0.64 Gy/GBq and 0.34 Gy/GBq and 0.81 Gy/GBq | Kidneys Absorbed Dose (Gy) (individual patients (one per Subject ID), cycle 1, actual injected dose): 2.03 Gy and 1.68 Gy and 3.62 Gy and 4.87 Gy and 2.56 Gy and 5.82 Gy | Kidneys Absorbed Dose (Gy) Assuming 7.4 GBq per cycle (individual patients (one per Subject ID), one cycle): 4.8 Gy and 2.5 Gy and 6.0 Gy and 2.0 Gy and 1.7 Gy and 3.6 Gy | Extrapolation of Absorbed Dose to 6 Cycles (Gy) Assuming 7.4 GBq per cycle (kidneys, individual patients (one per Subject ID)): 28.5 Gy and 15.0 Gy and 35.8 Gy and 11.8 Gy and 9.9 Gy and 21.3 Gy | Extrapolation of Absorbed Dose to 6 Cycles (Gy) Assuming 7.4 GBq per cycle, mean (kidneys, mean of 6 patients): 20.4 Gy | Kidneys Absorbed Dose (Gy), Mean (mean of 6 patients, cycle 1): 3.43 Gy | Kidneys Absorbed Dose (Gy/GBq), Mean (mean of 6 patients, cycle 1): 0.46 Gy/GBq | Whole Body TIAC (time integrated activity coefficient), Mean (mean of 6 patients, cycle 1): 16.6 h | Kidneys Absorbed Dose (Gy) Assuming 7.4 GBq per cycle, mean (mean of 6 patients, one cycle): 3.4 Gy
